Entries after “also recorded” stand apart in the source; their conditions may differ.
Assays:
[1] = biological target: T1, full-length recombinant rat vitamin D receptor (Rattus norvegicus, UniProt P13053); assay: Vitamin D receptor binding (competition with [3H]-1,25-(OH)2-D3)
T1 construct: Full-length recombinant rat receptor was expressed in E. coli BL21 (DE3) Codon Plus RIL cells; histidine tag (C); made in house; host or cells: E. coli BL21 (DE3) Codon Plus RIL
T1 sequence (P13053 1-423): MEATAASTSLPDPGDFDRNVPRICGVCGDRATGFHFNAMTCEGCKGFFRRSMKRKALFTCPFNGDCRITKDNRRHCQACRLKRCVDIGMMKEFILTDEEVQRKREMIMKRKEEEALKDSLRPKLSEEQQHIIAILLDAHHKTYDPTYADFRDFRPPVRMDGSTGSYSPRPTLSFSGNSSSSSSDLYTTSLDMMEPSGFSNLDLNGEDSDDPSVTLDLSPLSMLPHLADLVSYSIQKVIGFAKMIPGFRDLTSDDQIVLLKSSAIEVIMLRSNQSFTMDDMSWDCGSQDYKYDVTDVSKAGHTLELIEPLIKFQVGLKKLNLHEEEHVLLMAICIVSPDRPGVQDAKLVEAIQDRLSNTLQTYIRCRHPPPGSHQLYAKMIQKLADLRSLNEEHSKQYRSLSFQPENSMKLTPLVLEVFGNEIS
Description: Full-length recombinant rat receptor was expressed in E. coli BL21 (DE3) Codon Plus RIL cells and purified to homogeneity using two different column chromatography systems. The first system was a nickel affinity resin that utilizes the C-terminal histidine tag on this protein. The protein that was eluted from this resin was further purified using ion exchange chromatography (S-Sepharose Fast Flow). Aliquots of the purified protein were quick frozen in liquid nitrogen and stored at −80° C. until use. For use in binding assays, the protein was diluted in TEDK50 (50 mM Tris, 1.5 mM EDTA, pH7.4, 5 mM DTT, 150 mM KCl) with 0.1% Chaps detergent. The receptor protein and ligand concentration was optimized such that no more than 20% of the added radiolabeled ligand was bound to the receptor.
Radiolabeled ligand (^3H-1,25(OH)2D3, ˜159 Ci/mmole) was added in ethanol at a final concentration of 1 nM.
Radiolabeled and unlabeled ligands were added to 100 mcl of the diluted protein at a final ethanol concentration of <10%, mixed and incubated overnight on ice to reach binding equilibrium. The following day, 100 mcl of hydroxylapatite slurry (50%) was added to each tube and mixed at 10-minute intervals for 30 minutes. […] Total binding was determined from the tubes containing only radiolabeled ligand.

[2] = tested on: 24-hydyroxylase (24Ohase) gene promoter luciferase reporter in ROS 17/2.8 (bone) cells; assay: In vitro transcription assay (24-hydroxylase promoter luciferase reporter); format: cell-based; conditions: Ros17/2.8 (bone) cells
Description: Transcription activity was measured in ROS 17/2.8 (bone) cells that were stably transfected with a 24-hydyroxylase (24Ohase) gene promoter upstream of a luciferase reporter gene (Arbour et al., 1998). Cells were given a range of doses. Sixteen hours after dosing the cells were harvested and luciferase activities were measured using a luminometer. (RLU=relative luciferase units)

[3] = tested on: Male, weanling Sprague-Dawley rats; assay: Bone calcium mobilization (serum calcium); format: in vivo, rat; conditions: four consecutive ip doses, FIG. 2
Source text: Male, weanling Sprague-Dawley rats were placed on Diet 11 (Suda et al., Purified Rodent Diet-Diet 11, containing 0.47% and 0.3% phosphorus and fat soluble vitamins A, D, E and K are provided ad libitum)(0.47% Ca) diet+AEK for one week followed by Diet 11 (0.02% Ca)+AEK for 3 weeks. The rats were then switched to a diet containing 0.47% Ca for one week followed by two weeks on a diet containing 0.02% Ca. Dose administration began during the last week on 0.02% calcium diet. Four consecutive ip doses were given approximately 24 hours apart. Twenty-four hours after the last dose, blood was collected from the severed neck and the concentration of serum calcium determined as a measure of bone calcium mobilization. The first 10 cm of the intestine was also collected for intestinal calcium transport analysis using the everted gut sac method. The everted gut sac assay was carried out as previously described by Martin and Deluca, Am. J. Physiol. 216, 1351 (1969); (DeLuca et al., U.S. Pat. No. 4,188,345), which are incorporated by reference as if fully set forth herein. […]
Twenty-four hours after the final dose, approximately 1 ml of blood is collected from the tail artery of each experimental animal. […] The level of calcium is determined by diluting the serum into 0.1% lanthum chloride and measuring the absorbance on an atomic absorption spectrophotometer (Perkin Elmer Model 3110, Shelton, Conn.).

[4] = tested on: Male, weanling Sprague-Dawley rats; assay: Intestinal calcium transport (everted gut sac method); format: in vivo, rat; conditions: four consecutive ip doses, FIG. 3
Source text: Male, weanling Sprague-Dawley rats were placed on Diet 11 (Suda et al., Purified Rodent Diet-Diet 11, containing 0.47% and 0.3% phosphorus and fat soluble vitamins A, D, E and K are provided ad libitum)(0.47% Ca) diet+AEK for one week followed by Diet 11 (0.02% Ca)+AEK for 3 weeks. The rats were then switched to a diet containing 0.47% Ca for one week followed by two weeks on a diet containing 0.02% Ca. Dose administration began during the last week on 0.02% calcium diet. Four consecutive ip doses were given approximately 24 hours apart. Twenty-four hours after the last dose, blood was collected from the severed neck and the concentration of serum calcium determined as a measure of bone calcium mobilization. The first 10 cm of the intestine was also collected for intestinal calcium transport analysis using the everted gut sac method. The everted gut sac assay was carried out as previously described by Martin and Deluca, Am. J. Physiol. 216, 1351 (1969); (DeLuca et al., U.S. Pat. No. 4,188,345), which are incorporated by reference as if fully set forth herein.
The negative control material is prepared by volumetrically measuring ethanol (<5%) and propylene glycol, mixing, and then placing in storage at 2 to 8° C.
The solution is mixed and then stored at 2 to 8° C. […]

HL-60 cells = assay: HL-60 differentiation (nitro blue tetrazolium reduction); format: cell-based, human; conditions: FIG. 4
Description: The study drugs were dissolved in ethanol and the concentrations determined using UV spectrophotometry. Serial dilutions were prepared so that a range of drug concentrations could be tested without changing the final concentration of ethanol (<0.2%) present in the cell cultures.
Human promyelocytic leukemia (HL60) cells were grown in RPMI-1640 medium containing 10% fetal bovine serum. The cells were incubated at 37° C. in the presence of 5% CO2.
HL60 cells were plated at 1.2×10^5 cells/ml. Eighteen hours after plating, cells in duplicate were treated with drug. Four days later, the cells were harvested and a nitro blue tetrazolium reduction assay was performed (Collins et al., 1979; J. Exp. Med. 149:969-974). The percentage of differentiated cells was determined by counting a total of 200 cells and recording the number that contained intracellular black-blue formazan deposits. Verification of differentiation to monocytic cells was determined by measuring phagocytic activity (data not shown).

C=C1[C@H](O)CC(=C/C=C2\CCC[C@]3(C)[C@@H](CCCCC(C)C)CC[C@@H]23)C[C@H]1O [SY-44, 2-methylene-1α-hydroxy-19,21-dinorvitamin D3]
binding to the recombinant vitamin D receptor, times less active when compared to 1α,25-dihydroxyvitamin D3 ([1]; competition with [3H]-1,25-(OH)2-D3, relative to 1α,25-dihydroxyvitamin D3, FIG. 1): 10 times
binding to vitamin D receptors (in words) ([1]; summary statement): high binding to vitamin D receptors
stimulating transcription of a reporter gene, times less active than 1α,25-dihydroxyvitamin D3 ([2]; stably transfected reporter, FIG. 5): 10 times
stimulation of transcription of reporter gene (in words) ([2]; summary statement): capability to stimulate transcription of reporter gene
bone calcium mobilization activity compared with 1α,25-dihydroxyvitamin D3 [3]: less bone calcium mobilization activity; also recorded: low ability to mobilize calcium from bone
intestinal calcium transport activity compared with 1α,25-dihydroxyvitamin D3 [4]: higher intestinal calcium transport activity; also recorded: high intestinal calcium transport activity
activity in inducing differentiation of HL-60 cells compared with 1α,25-dihydroxyvitamin D3 (HL-60 cells): slightly less active; also recorded: capability to induce differentiation of HL-60 cells
